Experimental data taken from PubChem BioAssay (NCI).
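Following 48 hours of exposure in 96-well plates, responses at five concentrations were used to interpolate endpoints linearly. GI50 marks 50% less growth. TGI denotes the concentration required for complete inhibition of growth.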

Legend:
Assay in all cases: NCI tumour cell line growth inhibition, 48 h
786-0 renal = tested on: 786-0 renal
A498 renal = tested on: A498 renal
A549 NSCLC = tested on: A549 NSCLC
ACHN renal = tested on: ACHN renal
BT-549 breast = tested on: BT-549 breast
CAKI-1 renal = tested on: CAKI-1 renal
CCRF-CEM leukemia = tested on: CCRF-CEM leukemia
COLO 205 colon = tested on: COLO 205 colon
DU-145 prostate = tested on: DU-145 prostate
EKVX NSCLC = tested on: EKVX NSCLC
HCC-2998 colon = tested on: HCC-2998 colon
HCT-116 colon = tested on: HCT-116 colon
HCT-15 colon = tested on: HCT-15 colon
HL-60(TB) leukemia = tested on: HL-60(TB) leukemia
HOP-62 NSCLC = tested on: HOP-62 NSCLC
HOP-92 NSCLC = tested on: HOP-92 NSCLC
HS 578T breast = tested on: HS 578T breast
HT29 colon = tested on: HT29 colon
IGROV1 ovarian = tested on: IGROV1 ovarian
K-562 leukemia = tested on: K-562 leukemia
KM12 colon = tested on: KM12 colon
LOX IMVI melanoma = tested on: LOX IMVI melanoma
M14 melanoma = tested on: M14 melanoma
MALME-3M melanoma = tested on: MALME-3M melanoma
MCF7 breast = tested on: MCF7 breast
MDA-MB-231 breast = tested on: MDA-MB-231 breast
MDA-MB-435 = tested on: MDA-MB-435
MDA-MB-468 breast = tested on: MDA-MB-468 breast
MOLT-4 leukemia = tested on: MOLT-4 leukemia
NCI-H226 lung = tested on: NCI-H226 lung
NCI-H23 lung = tested on: NCI-H23 lung
NCI-H460 lung = tested on: NCI-H460 lung
NCI-H522 lung = tested on: NCI-H522 lung
NCI/ADR-RES ovarian = tested on: NCI/ADR-RES ovarian
OVCAR-3 ovarian = tested on: OVCAR-3 ovarian
OVCAR-4 ovarian = tested on: OVCAR-4 ovarian
OVCAR-5 ovarian = tested on: OVCAR-5 ovarian
OVCAR-8 ovarian = tested on: OVCAR-8 ovarian
PC-3 prostate = tested on: PC-3 prostate
RPMI-8226 leukemia = tested on: RPMI-8226 leukemia
RXF 393 renal = tested on: RXF 393 renal
SF-268 CNS = tested on: SF-268 CNS
SF-295 CNS = tested on: SF-295 CNS
SF-539 CNS = tested on: SF-539 CNS
SK-MEL-2 melanoma = tested on: SK-MEL-2 melanoma
SK-MEL-28 melanoma = tested on: SK-MEL-28 melanoma
SK-MEL-5 melanoma = tested on: SK-MEL-5 melanoma
SK-OV-3 ovarian = tested on: SK-OV-3 ovarian
SN12C renal = tested on: SN12C renal
SNB-19 CNS = tested on: SNB-19 CNS
SNB-75 CNS = tested on: SNB-75 CNS
SR leukemia = tested on: SR leukemia
SW-620 colon = tested on: SW-620 colon
T-47D breast = tested on: T-47D breast
TK-10 renal = tested on: TK-10 renal
U251 CNS = tested on: U251 CNS
UACC-257 melanoma = tested on: UACC-257 melanoma
UACC-62 melanoma = tested on: UACC-62 melanoma
UO-31 renal = tested on: UO-31 renal

CC(C)(C)OC(=O)N1C/C(=C\c2ccc(F)cc2)C(=O)/C(=C/c2ccc(F)cc2)C1
GI50 (786-0 renal): 1940 nM
TGI (786-0 renal): 3.98 µM
GI50 (A498 renal): 17.1 µM
TGI (A498 renal): 34.6 µM
GI50 (A549 NSCLC): 6.72 µM
TGI (A549 NSCLC): 29 µM
GI50 (ACHN renal): 1870 nM
TGI (ACHN renal): 3.68 µM
GI50 (BT-549 breast): 1820 nM
TGI (BT-549 breast): 3.73 µM
GI50 (CAKI-1 renal): 2070 nM
TGI (CAKI-1 renal): 5.5 µM
GI50 (CCRF-CEM leukemia): 1810 nM
TGI (CCRF-CEM leukemia): > 100 µM
GI50 (COLO 205 colon): 3.49 µM
TGI (COLO 205 colon): 12.1 µM
GI50 (DU-145 prostate): 3.5 µM
TGI (DU-145 prostate): 13.7 µM
GI50 (EKVX NSCLC): 2560 nM
TGI (EKVX NSCLC): 6.61 µM
GI50 (HCC-2998 colon): 1840 nM
TGI (HCC-2998 colon): 3.26 µM
GI50 (HCT-116 colon): 355 nM
TGI (HCT-116 colon): 1280 nM
GI50 (HCT-15 colon): 1500 nM
TGI (HCT-15 colon): 3.22 µM
GI50 (HL-60(TB) leukemia): 2880 nM
TGI (HL-60(TB) leukemia): > 100 µM
GI50 (HOP-62 NSCLC): 13.1 µM
TGI (HOP-62 NSCLC): 26.9 µM
GI50 (HOP-92 NSCLC): 2510 nM
TGI (HOP-92 NSCLC): 9.66 µM
GI50 (HS 578T breast): 2260 nM
TGI (HS 578T breast): 7.68 µM
GI50 (HT29 colon): 1910 nM
TGI (HT29 colon): 3.72 µM
GI50 (IGROV1 ovarian): 2140 nM
TGI (IGROV1 ovarian): 4.82 µM
GI50 (K-562 leukemia): 643 nM
TGI (K-562 leukemia): > 100 µM
GI50 (KM12 colon): 1890 nM
TGI (KM12 colon): 4.23 µM
GI50 (LOX IMVI melanoma): 1280 nM
TGI (LOX IMVI melanoma): 2550 nM
GI50 (M14 melanoma): 2020 nM
TGI (M14 melanoma): 4.5 µM
GI50 (MALME-3M melanoma): 2240 nM
TGI (MALME-3M melanoma): 5.15 µM
GI50 (MCF7 breast): 991 nM
TGI (MCF7 breast): 2460 nM
GI50 (MDA-MB-231 breast): 2160 nM
TGI (MDA-MB-231 breast): 5.27 µM
GI50 (MDA-MB-435): 1730 nM
TGI (MDA-MB-435): 3.32 µM
GI50 (MDA-MB-468 breast): 1850 nM
TGI (MDA-MB-468 breast): 3.75 µM
GI50 (MOLT-4 leukemia): 3.5 µM
TGI (MOLT-4 leukemia): > 100 µM
GI50 (NCI-H226 lung): 3.64 µM
TGI (NCI-H226 lung): 14.8 µM
GI50 (NCI-H23 lung): 2170 nM
TGI (NCI-H23 lung): 5.3 µM
GI50 (NCI-H460 lung): 3.22 µM
TGI (NCI-H460 lung): 10.7 µM
GI50 (NCI-H522 lung): 1630 nM
TGI (NCI-H522 lung): 3.17 µM
GI50 (NCI/ADR-RES ovarian): 1890 nM
TGI (NCI/ADR-RES ovarian): 4.39 µM
GI50 (OVCAR-3 ovarian): 1990 nM
TGI (OVCAR-3 ovarian): 4.46 µM
GI50 (OVCAR-4 ovarian): 3.22 µM
TGI (OVCAR-4 ovarian): 19.5 µM
GI50 (OVCAR-5 ovarian): 2180 nM
TGI (OVCAR-5 ovarian): 5.59 µM
GI50 (OVCAR-8 ovarian): 1830 nM
TGI (OVCAR-8 ovarian): 3.78 µM
GI50 (PC-3 prostate): 1900 nM
TGI (PC-3 prostate): 6.41 µM
GI50 (RPMI-8226 leukemia): 379 nM
TGI (RPMI-8226 leukemia): 2640 nM
GI50 (RXF 393 renal): 2920 nM
TGI (RXF 393 renal): 8.29 µM
GI50 (SF-268 CNS): 3.02 µM
TGI (SF-268 CNS): 11.7 µM
GI50 (SF-295 CNS): 1970 nM
TGI (SF-295 CNS): 3.98 µM
GI50 (SF-539 CNS): 1940 nM
TGI (SF-539 CNS): 3.81 µM
GI50 (SK-MEL-2 melanoma): 2650 nM
TGI (SK-MEL-2 melanoma): 9.67 µM
GI50 (SK-MEL-28 melanoma): 2170 nM
TGI (SK-MEL-28 melanoma): 5.51 µM
GI50 (SK-MEL-5 melanoma): 1710 nM
TGI (SK-MEL-5 melanoma): 3.51 µM
GI50 (SK-OV-3 ovarian): 8.24 µM
TGI (SK-OV-3 ovarian): 21.9 µM
GI50 (SN12C renal): 1820 nM
TGI (SN12C renal): 4.12 µM
GI50 (SNB-19 CNS): 2650 nM
TGI (SNB-19 CNS): 8.72 µM
GI50 (SNB-75 CNS): 2530 nM
TGI (SNB-75 CNS): 19.9 µM
GI50 (SR leukemia): 335 nM
TGI (SR leukemia): > 100 µM
GI50 (SW-620 colon): 455 nM
TGI (SW-620 colon): 1700 nM
GI50 (T-47D breast): 3.18 µM
TGI (T-47D breast): 15.9 µM
GI50 (TK-10 renal): 4.01 µM
TGI (TK-10 renal): 16.4 µM
GI50 (U251 CNS): 1440 nM
TGI (U251 CNS): 2960 nM
GI50 (UACC-257 melanoma): 2060 nM
TGI (UACC-257 melanoma): 5.19 µM
GI50 (UACC-62 melanoma): 1780 nM
TGI (UACC-62 melanoma): 4.17 µM
GI50 (UO-31 renal): 1770 nM
TGI (UO-31 renal): 3.94 µM
